From PubChem BioAssay (NCI)
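A five-concentration, 48-hour dose response in 96-well plates underlies each endpoint, interpolated linearly between surrounding concentrations. GI50: concentration for 50% inhibition of growth. TGI marks complete inhibition of growth.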

Experiments:
Test in all cases: NCI anticancer screen, dose series, 48 h
[1] = tested on: CCRF-CEM leukemia
[2] = tested on: SK-MEL-2 melanoma
[3] = tested on: SNB-75 CNS
[4] = tested on: MCF7 breast
[5] = tested on: HT29 colon
[6] = tested on: DU-145 prostate
[7] = tested on: RPMI-8226 leukemia
[8] = tested on: OVCAR-4 ovarian
[9] = tested on: PC-3 prostate
[10] = tested on: NCI-H460 lung
[11] = tested on: HCT-116 colon
[12] = tested on: COLO 205 colon
[13] = tested on: CAKI-1 renal
[14] = tested on: ACHN renal
[15] = tested on: OVCAR-5 ovarian
[16] = tested on: HCC-2998 colon
[17] = tested on: SN12C renal
[18] = tested on: HOP-92 NSCLC
[19] = tested on: SK-OV-3 ovarian
[20] = tested on: MOLT-4 leukemia
[21] = tested on: NCI-H23 lung
[22] = tested on: HOP-62 NSCLC
[23] = tested on: EKVX NSCLC
[24] = tested on: SW-620 colon
[25] = tested on: KM12 colon
[26] = tested on: TK-10 renal
[27] = tested on: HCT-15 colon
[28] = tested on: SF-539 CNS
[29] = tested on: NCI/ADR-RES ovarian
[30] = tested on: OVCAR-8 ovarian
[31] = tested on: NCI-H522 lung
[32] = tested on: U251 CNS
[33] = tested on: OVCAR-3 ovarian
[34] = tested on: MDA-MB-231 breast
[35] = tested on: UACC-62 melanoma
[36] = tested on: UACC-257 melanoma
[37] = tested on: A549 NSCLC
[38] = tested on: SK-MEL-28 melanoma
[39] = tested on: IGROV1 ovarian
[40] = tested on: HS 578T breast
[41] = tested on: SF-268 CNS
[42] = tested on: SNB-19 CNS
[43] = tested on: T-47D breast
[44] = tested on: BT-549 breast
[45] = tested on: M14 melanoma
[46] = tested on: K-562 leukemia
[47] = tested on: NCI-H226 lung
[48] = tested on: SF-295 CNS
[49] = tested on: MALME-3M melanoma
[50] = tested on: HL-60(TB) leukemia
[51] = tested on: SK-MEL-5 melanoma
[52] = tested on: RXF 393 renal
[53] = tested on: 786-0 renal
[54] = tested on: MDA-MB-435
[55] = tested on: SR leukemia
[56] = tested on: UO-31 renal

Nc1ccccc1NC(=O)c1ccc(CNc2nccc(-c3cccnc3)n2)cc1
GI50 [1]: 742 nM
TGI [1]: > 100000 nM
GI50 [2]: 481 nM
TGI [2]: 3710 nM
GI50 [3]: 1430 nM
TGI [3]: > 25400 nM
GI50 [4]: 716 nM
TGI [4]: > 43300 nM
GI50 [5]: 364 nM
TGI [5]: 6280 nM
GI50 [6]: 1450 nM
TGI [6]: > 100000 nM
GI50 [7]: 500 nM
TGI [7]: 14600 nM
GI50 [8]: 1430 nM
TGI [8]: > 28300 nM
GI50 [9]: 928 nM
TGI [9]: > 100000 nM
GI50 [10]: 1150 nM
TGI [10]: 97000 nM
GI50 [11]: 362 nM
TGI [11]: > 100000 nM
GI50 [12]: 626 nM
TGI [12]: 2060 nM
GI50 [13]: 323 nM
GI50 [14]: 1140 nM
TGI [14]: > 27800 nM
GI50 [15]: 550 nM
TGI [15]: > 48000 nM
GI50 [16]: 785 nM
TGI [16]: 2590 nM
GI50 [17]: 2340 nM
TGI [17]: > 72800 nM
GI50 [18]: 206 nM
TGI [18]: 2700 nM
GI50 [19]: 1370 nM
TGI [19]: > 28700 nM
GI50 [20]: 643 nM
TGI [20]: > 23200 nM
GI50 [21]: 1400 nM
TGI [21]: > 68100 nM
GI50 [22]: 1340 nM
TGI [22]: > 51800 nM
GI50 [23]: 1360 nM
TGI [23]: > 59100 nM
GI50 [24]: 518 nM
TGI [24]: > 100000 nM
GI50 [25]: 886 nM
TGI [25]: 14100 nM
GI50 [26]: 304 nM
TGI [26]: > 27200 nM
GI50 [27]: 2060 nM
TGI [27]: > 44100 nM
GI50 [28]: 805 nM
TGI [28]: 13100 nM
GI50 [29]: 803 nM
TGI [29]: > 22900 nM
GI50 [30]: 541 nM
TGI [30]: > 100000 nM
GI50 [31]: 337 nM
TGI [31]: 1760 nM
GI50 [32]: 1120 nM
GI50 [33]: 1330 nM
TGI [33]: 4620 nM
GI50 [34]: 2440 nM
TGI [34]: > 100000 nM
GI50 [35]: 476 nM
TGI [35]: 2170 nM
GI50 [36]: 730 nM
GI50 [37]: 1350 nM
TGI [37]: > 47600 nM
GI50 [38]: 691 nM
TGI [38]: 3150 nM
GI50 [39]: 2360 nM
TGI [39]: > 27700 nM
GI50 [40]: 1060 nM
TGI [40]: > 100000 nM
GI50 [41]: 995 nM
TGI [41]: > 21400 nM
GI50 [42]: 3490 nM
TGI [42]: > 100000 nM
GI50 [43]: 657 nM
TGI [43]: > 22800 nM
GI50 [44]: 1900 nM
TGI [44]: 14800 nM
GI50 [45]: 1030 nM
TGI [45]: 4180 nM
GI50 [46]: 358 nM
TGI [46]: > 100000 nM
GI50 [47]: 1790 nM
TGI [47]: 23600 nM
GI50 [48]: 722 nM
TGI [48]: > 100000 nM
GI50 [49]: 570 nM
TGI [49]: > 21700 nM
GI50 [50]: 424 nM
TGI [50]: 2430 nM
GI50 [51]: 381 nM
TGI [51]: 1150 nM
GI50 [52]: 878 nM
TGI [52]: 3010 nM
GI50 [53]: 2150 nM
TGI [53]: > 47900 nM
GI50 [54]: 299 nM
TGI [54]: 1250 nM
GI50 [55]: 268 nM
GI50 [56]: 978 nM
TGI [56]: > 77200 nM
